Where a name gives a salt, the structure may show the parent alone.
How the values were obtained:
[1] = LD20 in the P388/0 test mice; format: in vivo, mouse (CD2-F1); conditions: mouse, in vivo, IP days 1, 5, 9, doses on a mg/kg basis, read-out: LD20 column, value in parentheses: highest nontoxic dose where the LD20 was not determined
Description: (§1) CD2-F1 mice, of the same sex, weighing 20±3 g, are used for this test. Control and test animals are injected intraperitoneally with a suspension of ~10^6 viable P388/0 tumor cells on day 0. In each test, several dose levels which bracket the LD20 of the compound are evaluated; each dose level group contains six animals. The test compounds are prepared either in physiologic saline containing 0.05% Tween 80 or distilled water containing 5% dextrose and are administered intraperitoneally on days 1, 5, and 9 relative to tumor implant. Doses are on a mg/kg basis according to individual animals' body weights. The day of death for each animal is recorded, the median identified for each group and the ratios of median survival time for treated (T)/control (C) groups are calculated. The criterion for activity is T/C×100≥120%.
(§2) ^A Values in parentheses are the highest nontoxic dose where the
(§3) LD20 was not determined.

[2] = tested on: CD2-F1 mice; assay: LD20 in the P388/0 test mice; format: in vivo, mouse (CD2-F1); conditions: IP days 1, 5, 9, doses on a mg/kg basis
Description: as §1, §2, §3

[3] = tested on: melanotic melanoma B16; assay: Melanotic Melanoma B16 test; format: in vivo, mouse (B6C3-F1); conditions: median survival T/C; IP days 1, 5, 9; active if >125%; dose mg/kg: 1C 100, 6G 50, 3 70, 2 75, 18B 70
Text: Methods for evaluating the antitumor activity of these compounds are essentially those used in the Tumor Panel by the Developmental Therapeutics Program, Division of Cancer Treatment, National Cancer Institute, A. Goldin, et al., Methods in Cancer Research, Vol. XVI, p. 165, Academic Press (1979). Some modifications, in dose level and schedule have been made to increase the testing efficiency.
as §1
B6C3-F1 mice of the same sex, weighing 20±3 g, are used for this test. A suspension of B16 cells is prepared from a non-necrotic portion of solid tumor tissue obtained from a passage mouse. One gram of tumor is homogenized in 9 mL ice-cold Earle's salts solution and filtered through 1000 mesh screen to remove debris. 0.5 mL of the resulting brei is injected intraperitoneally into each animal. Dosing is carried out as in the P388/0 and L1210 tests. Days of death are recorded for a 60 day period and T/C ratio calculated as in the P388/0 and L1210 tests. The criterion for activity is T/C×100>125%.

[4] = tested on: Streptococcus pyogenes (CN10); assay: Antibacterial test, Streptococcus pyogenes (agar dilution); format: cell-based
Text: (§4) Anitbacterial testing against […] (S3264) and Streptococcus pyogenes (CN10) was done with slight modifications using standard agar dilution assays as outlined in Manual of Clinical Microbiology Second Ed., E. H. Lennette. E. H. Spaulding and J. P. Traunt Eds., American Society for Microbiology, Washington, DC, 1974

[5] = tested on: Mycoplasma smegmatis; assay: Antibacterial test, Mycoplasma smegmatis (agar dilution); format: cell-based
Text: as §4

Compound	LD20 [2] [mg/kg]	further results
O[C@@H]1CCC[C@H](O)[C@H]1NCc1cc2c3ccccc3ccc2c2ccccc12 [Example 10B, (1α,2β,3α)-2-((6-Chrysenylmethyl)amino)-1,3-cyclohexanediol hydrochloride]		MTD [1]: 675 mg/kg
CC(C)C(CO)(CO)NCc1cc2c3ccccc3ccc2c2ccccc12 [Example 11C, 2-((6-Chrysenylmethyl)amino)-2-isopropyl-1,3-propanediol hydrochloride 1/3 H2 O]	150	
C[C@@H](O)C(C)(NCc1cc2c3ccccc3ccc2c2ccccc12)[C@@H](C)O (relative stereo) [Example 5F]	225	
CCc1cc2c3ccccc3c(CNC(C)(CO)CO)cc2c2ccccc12 [Example 15B, 2-(((12-Ethyl-6-chrysenyl)methyl)amino)-2-methyl-1,3-propanediol methanesulfonate]	150	
OCC(CO)NCc1cc2c3ccccc3ccc2c2ccccc12 [Example 14, 2-((6-Chrysenylmethyl)amino)-1,3-propanediol methanesulfonate]	160	
CS(=O)(=O)O.C[C@H](O)[C@@](C)(CO)NCc1cc2c3ccccc3ccc2c2ccccc12 (relative stereo) [Example 6H, (+-)(2R*,3S*)-2-((6-Chrysenylmethyl)amino)-2-methyl-1,3-butanediol methanesulfonate]	60	
C[C@@H](O)[C@@](C)(CO)NCc1cc2c3ccccc3ccc2c2ccccc12.Cl (relative stereo) [Example 7, (+-)(2R*,3R*)-2-((6-Chrysenylmethyl)amino)-2-methyl-1,3-butanediol hydrochloride]	100	
CC(CO)(CO)NCc1cc2c3ccccc3c(Cl)cc2c2ccccc12 [Example 4B, 2-(((12-Chloro-6-chrysenyl)methyl)amino)-2-methyl-1,3-propanediol methanesulfonate.1/3H2 O]	180	
Cl.OCC(CO)(CO)NCc1cc2c3ccccc3ccc2c2ccccc12 [Example 2, 2-((6-chrysenylmethyl)amino)-2-hydroxymethyl-1,3-propanediol hydrochloride]	100	T/C × 100% Excluding 60 day Survivors [3]: +144%; MIC [4]: 10 µg/mL; MIC [5]: 10 µg/mL
CCC(CO)(CO)NCc1cc2c3ccccc3ccc2c2ccccc12.Cl [Example 3, 2-((6-Chrysenylmethyl)amino)-2-ethyl-1,3-propanediol hydrochloride]	100	T/C × 100% Excluding 60 day Survivors [3]: +144%; MIC [4]: 10 µg/mL; MIC [5]: > 100 µg/mL
COCC(C)(CO)NCc1cc2c3ccccc3ccc2c2ccccc12.Cl (centres unmarked) [Example 9D, 3-methoxy-2-((6-chrysenylmethyl)amino)-2-methyl-1-propanol hydrochloride]	425	
CC(CO)(CO)NCc1ccc2ccc3c4ccccc4ccc3c2c1 [Example 19H, 2-((3-Chrysenylmethyl)amino)-2-methyl-1,3-propanediol methanesulfonate]	150	
CC(C)(CO)NCc1cc2c3ccccc3ccc2c2ccccc12.Cl [Example 18B, 2-((6-Chrysenylmethyl)amino)-2-methylpropanol hydrochloride]	80	T/C × 100% Excluding 60 day Survivors [3]: +125%; MIC [4]: ≤ 3 µg/mL; MIC [5]: 10 µg/mL
CC(=O)OCC(C)(COC(C)=O)NCc1cc2c3ccccc3ccc2c2ccccc12 [Example 16, 2-((6-Chrysenylmethyl)amino)-2-methyl-1,3-propanediol diacetate]	675	MIC [4]: 10 µg/mL; MIC [5]: 10 µg/mL
CC(CO)(CCO)NCc1cc2c3ccccc3ccc2c2ccccc12 (centres unmarked) [Example 12G, 2-((6-chrysenylmethyl)amino)-2-methyl-1,4-butanediol hyrochloride.1/3EtOH]	90	

— patent publication US4719046A, “Crysene derivatives” (Burroughs Wellcome Co., priority 1984, dated 1988)
